In patent US20080199423A1, “Methods of Using Apo2l Receptor Agonists and Ink Cell Activators” (GENENTECH, INC., priority 2004, published 2008):

Assays:
Format in all cases: cell-based, human
[1] = system: Apo2L/TRAIL protein in NK cells; experiment: Quantitative ELISA of Apo2L/TRAIL protein in NK cell lysates or supernatants; conditions: stimulated NK cells
Method: Resting and poly(I:C) stimulated NK cell lysates or their culture supernatants were assessed for the presence of Apo2L/TRAIL protein by quantitative ELISA (kit, BD Biosciences). To confirm Apo2L/TRAIL protein expression was increased following activation of NK cells with poly(I:C) or R848, an ELISA was performed.

[2] = system: Apo2L/TRAIL mRNA in NK cells; experiment: RT-QPCR of Apo2L/TRAIL message in treated NK cells; conditions: NK cells treated 18 hours; normalized to RPL19
Method: In another experiment, the purified NK cells were treated for 18 hours in RPMI 1640 supplemented with heat inactivated 10% FCS, penicillin, streptomycin, 10 mM sodium pyruvate, 2 mM L-glutamine and 10 mM HEPES with poly(I:C) (50 μg/ml), R-848 (5 μg/ml) or hIFN-alpha (1000 U/ml, Sigma) in the presence or absence of 10 μg/ml cycloheximide and Apo2L/TRAIL was measured in the extracted RNA. RT-PCR was performed and the amount of cDNA was quantitated by RT-QPCR analysis, normalized to RPL19, and fold induction over control is shown in FIG. 2A. Primers were designed as per instructions (Primer Express) and sequences are: hRPL19-probe: […] (SEQ ID NO:7); hRPL19-For: […] (SEQ ID NO:8); hRPL19-Rev: […] (SEQ ID NO:9); hApo2L-probe: […] (SEQ ID NO:10); hApo2L-For: […] (SEQ ID NO:11); hApo2L-Rev: […] (SEQ ID NO:12). cDNA was analyzed for expression of RPL19 and Apo2L/TRAIL by RT-QPCR (Applied Biosystems) as described in Zarember et al., J. Immunol., 168(2):554-61 (2002). Fold increase values are expressed as arbitrary units, relative to the calibrator gene RPL19.

[3] = system: NK cells; experiment: Microarray (Affymetrix U133) gene expression analysis of poly(I:C)-treated NK cells; conditions: for FoldChange / log10-FoldChange: relative to untreated NK cells
Method: A microarray based gene expression analysis using high-density oligonucleotide arrays (GeneChip, Affymetrix) was performed using RNA from resting and poly(I:C)-treated NK cells (NK cells were obtained and purified from 4 healthy donors using the technique described in Example 1 above). The NK cells were treated with poly(I:C) (50 μg/ml, Pharmacia) overnight in RPMI 1640 supplemented with heat inactivated 10% FCS, penicillin, streptomycin, 10 mM sodium pyruvate, 2 mM L-glutamine and 10 mM HEPES. RNA was isolated using a RNeasy kit (Qiagen), and treated with RNase-free DNase-I (Ambion) to ensure removal of contaminating DNA. NK cells were lysed in lysis buffer (50 mM HEPES pH7.5, 150 mM NaCl, 1.5 mM MgCl2, 1 mM EGTA, 10% glycerol and 1% Triton X-100, supplemented with Complete Protease Inhibitor Cocktail (Roche).
Affymetrix U133A and B GeneChip probe arrays were used to identify differentially expressed transcripts. Initially, the genes were ranked according to concordance in the pairwise comparison, and the Mann-Whitney pairwise comparison test was used to calculate significance. Genes for which the concordance was 100% were chosen for further analysis. This approach was previously validated to identify differentially expressed genes by confirming with real time RT-PCR. To determine confidence intervals shown in Table 1, the average log10-signal was computed for each probe set of the genes of interest, or the treatment and control groups. The estimated log10 fold change was defined as the difference between these averages. A pooled estimate of the standard deviation about the two groups' averages (computed separately for each probe set) was used to compute a 95% confidence interval for the log10 fold change. The estimated log10 fold change and the two endpoints of its 95% confidence interval were exponentiated back to the original signal scale, providing an estimate of fold change and a corresponding 95% confidence interval. Additional information about the U133 probe sets is available from the manufacturer, Affymetrix.
Fold change values and associated 95% confidence intervals (degree of freedom=6) were determined for genes of interest upon treatment with poly(I:C) relative to untreated NK cells. Data for each probe set present on the Affymetrix U133 chip series corresponding to the genes of interest is shown.

[4] = gene Apo2L, probe set 202687_s_at
[5] = gene Apo2L, probe set 202688_at
[6] = gene Apo2L, probe set 214329_x_at
[7] = gene CCL19, probe set 210072_at
[8] = gene CCL20, probe set 205476_at
[9] = gene CCL21, probe set 204606_at
[10] = gene FasL, probe set 211333_s_at
[11] = gene Granulysin, probe set 37145_at
[12] = gene Granulysin, probe set 205495_s_at
[13] = gene Granzyme A, probe set 205488_at
[14] = gene Granzyme B, probe set 210164_at
[15] = gene Granzyme H, probe set 210321_at
[16] = gene Granzyme M, probe set 207460_at
[17] = gene IL-8, probe set 202859_x_at
[18] = gene IL-8, probe set 211506_s_at
[19] = gene NKG2-D, probe set 205821_at
[20] = gene NKG2-D, probe set 210690_at
[21] = gene NKG2A, probe set 206785_s_at
[22] = gene NKp30, probe set 210629_x_at
[23] = gene NKp30, probe set 211581_x_at
[24] = gene NKp30, probe set 211582_x_at
[25] = gene NKp30, probe set 214181_x_at
[26] = gene NKp30, probe set 214574_x_at
[27] = gene Perforin 1, probe set 214617_at
[28] = gene TNFα, probe set 207113_s_at
[29] = poly(I:C) treatment, microarray

poly(I:C)
Apo2L/TRAIL protein in NK cell lysates [1]: present in a cell-associated form
Apo2L/TRAIL released into supernatants [1]: No significant levels
Increase of Apo2L/TRAIL mRNA over control [2]: 26 fold
FoldChange [3, 4]: 13.42
log10-FoldChange [3, 4]: 1.13
FoldChange [3, 5]: 9.67
log10-FoldChange [3, 5]: 0.99
FoldChange [3, 6]: 5.85
log10-FoldChange [3, 6]: 0.77
FoldChange [3, 7]: 34.71
log10-FoldChange [3, 7]: 1.54
FoldChange [3, 8]: 7.96
log10-FoldChange [3, 8]: 0.9
FoldChange [3, 9]: 1.2
log10-FoldChange [3, 9]: 0.08
FoldChange ([3]; gene CCR7, probe set 206337_at): 4.79
log10-FoldChange ([3]; gene CCR7, probe set 206337_at): 0.68
FoldChange ([3]; gene FasL, probe set 210865_at): 2.37
log10-FoldChange ([3]; gene FasL, probe set 210865_at): 0.37
FoldChange [3, 10]: 2.49
log10-FoldChange [3, 10]: 0.4
FoldChange [3, 11]: 1.18
log10-FoldChange [3, 11]: 0.07
FoldChange [3, 12]: 1.25
log10-FoldChange [3, 12]: 0.1
FoldChange [3, 13]: 0.83
log10-FoldChange [3, 13]: −0.08
FoldChange [3, 14]: 1.04
log10-FoldChange [3, 14]: 0.02
FoldChange [3, 15]: 0.58
log10-FoldChange [3, 15]: −0.24
FoldChange [3, 16]: 0.81
log10-FoldChange [3, 16]: −0.09
FoldChange ([3]; gene IFNγ, probe set 210354_at): 14.45
log10-FoldChange ([3]; gene IFNγ, probe set 210354_at): 1.16
FoldChange ([3]; gene IL-6, probe set 205207_at): 10.43
log10-FoldChange ([3]; gene IL-6, probe set 205207_at): 1.02
FoldChange [3, 17]: 4.07
log10-FoldChange [3, 17]: 0.61
FoldChange [3, 18]: 3.42
log10-FoldChange [3, 18]: 0.53
FoldChange [3, 19]: 0.86
log10-FoldChange [3, 19]: −0.07
FoldChange [3, 20]: 0.66
log10-FoldChange [3, 20]: −0.18
FoldChange [3, 21]: 0.97
log10-FoldChange [3, 21]: −0.01
FoldChange [3, 22]: 0.38
log10-FoldChange [3, 22]: −0.42
FoldChange [3, 23]: 0.26
log10-FoldChange [3, 23]: −0.59
FoldChange [3, 24]: 0.19
log10-FoldChange [3, 24]: −0.72
FoldChange [3, 25]: 0.22
log10-FoldChange [3, 25]: −0.67
FoldChange [3, 26]: 0.25
log10-FoldChange [3, 26]: −0.6
FoldChange [3, 27]: 1.3
log10-FoldChange [3, 27]: 0.12
FoldChange [3, 28]: 2.68
log10-FoldChange [3, 28]: 0.43
Expression of mRNA for FasL and TNF-alpha ([3]; poly(I:C) treatment (activation of TLR3)): smaller, but reproducible increase
Decrease in expression of NKp30 in NK cells [3, 29]: 3-5 fold
Decrease in expression of granzyme H in NK cells [3, 29]: 3-5 fold
Expression of mRNAs encoding perforin, granulysin, granzymes A, B, M, NKG2D and NKp44 [3, 29]: did not significantly alter
Increase in expression of Apo2L/TRAIL in NK cells [3, 29]: ~10 fold
